Patent US7262170B2, “Pharmaceutical composition for reducing vaginal acidity and treatment of vaginitis, and the use thereof” (priority 1998, dated 2007)

Assays:
Candida albicans = test: Growth of Candida albicans in broths with or without Fluconazole, Gram-stained smears of cultured broths; type: cell-based; details: 48 hours incubation, Fluconazole 0.005% in experiment tubes
Procedure: Broths: Four sterilized broths were prepared separately according to following formula: • A. Sucrose 0.25%, yeast extract powder 0.15%, glutamic acid 0.4%, aspartic acid 0.4%, isoleucine 0.4%, proline 0.4%, phenylalanine 0.4%, Fluconazole, 0.005%, distilled water, pH adjusted to 6.5 • B. Sucrose 0.25%, yeast extract powder 0.15%, glutamic acid 0.08%, aspartic acid 0.08%, isoleucine 0.08%, proline 0.08%, phenylalanine 0.08%, Fluconazole, 0.005%, distilled water, pH adjusted to 6.5 • C. Control-A broth: Sucrose 0.25%, yeast extract powder 0.15%, glutamic acid 0.4%, aspartic acid 0.4%, isoleucine 0.4%, proline 0.4%, phenylalanine 0.4%, distilled water, pH adjusted to 6.5 • D. Control-B broth: Sucrose 0.25%, yeast extract powder 0.15%, glutamic acid 0.08%, aspartic acid 0.08%, isoleucine 0.08%, proline 0.08%, phenylalanine 0.08%, distilled water, pH adjusted to 6.5 Lactobacillus suspensions: Two lactobacillus suspensions were prepared separately from each of the clinical isolated L. acidophilus and L. crispatus strains. Candida suspension: One Candida suspension was prepared from a clinically isolated Candida albicans strain. Grouping: two groups of tubes were divided and each group had four tubes, two experimental tubes and two control tubes. Group A contained 3 ml of A-broth and Group B contained 3 ml of B-broth. […]

fungal vaginitis = details: anti-fungal drug alone; cited from earlier work

| Compound | growth of Candida albicans / yeast-like organisms in cultured broths (Candida albicans) | curative rate (fungal vaginitis) |
| --- | --- | --- |
| OC(Cn1cncn1)(Cn1cncn1)c1ccc(F)cc1F [Fluconazole] | inhibited |  |
| Mikostatin |  | 75-80% |
